Reference: ChEMBL document CHEMBL1201862, “PubChem BioAssay data set” (2004)
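Exposure lasted 48 hours, with cells grown in 96-well plates and compounds tested at five concentrations. GI50 = concentration required for 50% inhibition of growth.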 Calls of active or inactive are those of the source. Cut-off read from the data, not from the text of the source: active = GI50 up to about 1.1 µM and inactive = higher.

Columns and labels:
Assay in all cases: DTP human tumour cell line panel, 48 h
M19-MEL = tested on: M19-MEL
UACC-257 = tested on: UACC-257
A498 = tested on: A498
CAKI-1 = tested on: CAKI-1
RXF 631 = tested on: RXF 631
HL-60 = tested on: HL-60
SK-MEL-2 = tested on: SK-MEL-2
SNB-78 = tested on: SNB-78
M14 = tested on: M14
TK-10 = tested on: TK-10
NCI-H226 = tested on: NCI-H226
RXF 393 = tested on: RXF 393
MOLT-4 = tested on: MOLT-4
DLD-1 = tested on: DLD-1
SF-268 = tested on: SF-268
RPMI-8226 = tested on: RPMI-8226
SK-OV-3 = tested on: SK-OV-3
NCI-H460 = tested on: NCI-H460
OVCAR-5 = tested on: OVCAR-5
SF-539 = tested on: SF-539
DMS-273 = tested on: DMS-273
SR = tested on: SR
A549 = tested on: A549
XF498 = tested on: XF498
SK-MEL-28 = tested on: SK-MEL-28
786-0 = tested on: 786-0
K562 = tested on: K562
SN12C = tested on: SN12C
HOP-92 = tested on: HOP-92
UACC-62 = tested on: UACC-62
OVCAR-8 = tested on: OVCAR-8
HOP-62 = tested on: HOP-62
SW-620 = tested on: SW-620
SK-MEL-5 = tested on: SK-MEL-5
SF-295 = tested on: SF-295
Malme-3M = tested on: Malme-3M
KM12 = tested on: KM12
NCI-H23 = tested on: NCI-H23
CCRF-CEM = tested on: CCRF-CEM
NCI-H522 = tested on: NCI-H522
OVCAR-3 = tested on: OVCAR-3
LXFL 529 = tested on: LXFL 529
HCC 2998 = tested on: HCC 2998
LOX IMVI = tested on: LOX IMVI
IGROV-1 = tested on: IGROV-1
OVCAR-4 = tested on: OVCAR-4
HCT-116 = tested on: HCT-116
UO-31 = tested on: UO-31
SNB-19 = tested on: SNB-19
SNB-75 = tested on: SNB-75
U-251 = tested on: U-251
HT-29 = tested on: HT-29
ACHN = tested on: ACHN
HCT-15 = tested on: HCT-15
EKVX = tested on: EKVX
COLO 205 = tested on: COLO 205
DMS-114 = tested on: DMS-114
HOP-18 = tested on: HOP-18
KM-20L2 = tested on: KM-20L2

## CNC(=O)NCCN1N=C(C)/C(=C\c2ccccc2)CC1=O
M19-MEL
  GI50: > 100 µM (inactive)
UACC-257
  GI50: > 100 µM (inactive)
A498
  GI50: > 100 µM (inactive)
CAKI-1
  GI50: > 100 µM (inactive)
RXF 631
  GI50: > 100 µM (inactive)
HL-60
  GI50: > 100 µM (inactive)
SK-MEL-2
  GI50: > 100 µM (inactive)
SNB-78
  GI50: > 100 µM (inactive)
M14
  GI50: > 100 µM (inactive)
TK-10
  GI50: > 100 µM (inactive)
NCI-H226
  GI50: > 100 µM (inactive)
RXF 393
  GI50: > 100 µM (inactive)
MOLT-4
  GI50: > 100 µM (inactive)
DLD-1
  GI50: > 100 µM (inactive)
SF-268
  GI50: > 100 µM (inactive)
RPMI-8226
  GI50: > 100 µM (inactive)
SK-OV-3
  GI50: > 100 µM (inactive)
NCI-H460
  GI50: > 100 µM (inactive)
OVCAR-5
  GI50: > 100 µM (inactive)
SF-539
  GI50: > 100 µM (inactive)
DMS-273
  GI50: > 100 µM (inactive)
SR
  GI50: > 100 µM (inactive)
A549
  GI50: > 100 µM (inactive)
XF498
  GI50: > 100 µM (inactive)
SK-MEL-28
  GI50: > 100 µM (inactive)
786-0
  GI50: > 100 µM (inactive)
K562
  GI50: > 100 µM (inactive)
SN12C
  GI50: > 100 µM (inactive)
HOP-92
  GI50: > 100 µM (inactive)
UACC-62
  GI50: > 100 µM (inactive)
OVCAR-8
  GI50: > 100 µM (inactive)
HOP-62
  GI50: > 100 µM (inactive)
SW-620
  GI50: > 100 µM (inactive)
SK-MEL-5
  GI50: > 100 µM (inactive)
SF-295
  GI50: > 100 µM (inactive)
Malme-3M
  GI50: > 100 µM (inactive)
KM12
  GI50: > 100 µM (inactive)
NCI-H23
  GI50: > 100 µM (inactive)
CCRF-CEM
  GI50: > 100 µM (inactive)
NCI-H522
  GI50: > 100 µM (inactive)
OVCAR-3
  GI50: > 100 µM (inactive)
LXFL 529
  GI50: > 100 µM (inactive)
HCC 2998
  GI50: > 100 µM (inactive)
LOX IMVI
  GI50: > 100 µM (inactive)
IGROV-1
  GI50: > 100 µM (inactive)
OVCAR-4
  GI50: > 100 µM (inactive)
HCT-116
  GI50: > 100 µM (inactive)
UO-31
  GI50: > 100 µM (inactive)
SNB-19
  GI50: > 100 µM (inactive)
SNB-75
  GI50: 29 µM (inactive)
U-251
  GI50: > 100 µM (inactive)
HT-29
  GI50: > 100 µM (inactive)
ACHN
  GI50: > 100 µM (inactive)

## NCCCNC(=O)c1csc(NC(=O)c2csc(NC(=O)CCCN)n2)n1
M19-MEL
  GI50: > 100 µM (inactive)
UACC-257
  GI50: > 100 µM (inactive)
A498
  GI50: > 100 µM (inactive)
CAKI-1
  GI50: > 100 µM (inactive)
RXF 631
  GI50: > 100 µM (inactive)
HL-60
  GI50: > 100 µM (inactive)
SK-MEL-2
  GI50: > 100 µM (inactive)
HCT-15
  GI50: > 100 µM
SNB-78
  GI50: > 100 µM (inactive)
M14
  GI50: > 100 µM (inactive)
TK-10
  GI50: > 100 µM (inactive)
NCI-H226
  GI50: > 100 µM (inactive)
MOLT-4
  GI50: > 100 µM (inactive)
DLD-1
  GI50: > 100 µM (inactive)
SF-268
  GI50: > 100 µM (inactive)
RPMI-8226
  GI50: > 100 µM (inactive)
SK-OV-3
  GI50: > 100 µM (inactive)
NCI-H460
  GI50: > 100 µM (inactive)
EKVX
  GI50: > 100 µM (inactive)
OVCAR-5
  GI50: > 100 µM (inactive)
SF-539
  GI50: > 100 µM (inactive)
COLO 205
  GI50: > 100 µM (inactive)
DMS-273
  GI50: > 100 µM (inactive)
SR
  GI50: > 100 µM (inactive)
A549
  GI50: > 100 µM (inactive)
SK-MEL-28
  GI50: > 100 µM (inactive)
786-0
  GI50: > 100 µM (inactive)
K562
  GI50: > 100 µM (inactive)
SN12C
  GI50: > 100 µM (inactive)
HOP-92
  GI50: > 100 µM (inactive)
UACC-62
  GI50: > 100 µM (inactive)
OVCAR-8
  GI50: > 100 µM (inactive)
DMS-114
  GI50: > 100 µM (inactive)
HOP-62
  GI50: > 100 µM (inactive)
SK-MEL-5
  GI50: > 100 µM (inactive)
SF-295
  GI50: > 100 µM (inactive)
Malme-3M
  GI50: > 100 µM (inactive)
KM12
  GI50: > 100 µM (inactive)
NCI-H23
  GI50: > 100 µM (inactive)
CCRF-CEM
  GI50: > 100 µM (inactive)
HOP-18
  GI50: > 100 µM (inactive)
NCI-H522
  GI50: > 100 µM (inactive)
OVCAR-3
  GI50: > 100 µM (inactive)
LXFL 529
  GI50: > 100 µM (inactive)
KM-20L2
  GI50: > 100 µM (inactive)
HCC 2998
  GI50: > 100 µM (inactive)
IGROV-1
  GI50: > 100 µM (inactive)
OVCAR-4
  GI50: 18.7 µM (inactive)
HCT-116
  GI50: > 100 µM (inactive)
UO-31
  GI50: > 100 µM (inactive)
SNB-75
  GI50: > 100 µM (inactive)
U-251
  GI50: > 100 µM (inactive)
HT-29
  GI50: > 100 µM (inactive)
ACHN
  GI50: > 100 µM (inactive)
